# Experimental data: patent publication US8450332B2, “LIMK2 inhibitors, compositions comprising them, and methods of their use” (Lexicon Pharmaceuticals, Inc., priority 2008, dated 2013)
# Target: T1, LIMK2 (Homo sapiens, UniProt P53671)
# T1 construct: His tag (histidine-tagged; pFastBacHT vector); made in house; host or cells: Sf9 insect cells (BAC-to-BAC baculovirus system)
# Assay: In vitro LIMK2 inhibition assay (33P incorporation into myelin basic protein flash plates)
# Format: biochemical
# Protocol: Using the procedures described herein and methods known in the art, the additional compounds listed below in Table 1 were prepared. The LIMK2 IC50 data that is provided below for some of the compounds was determined using the assay described in Example 32.
# An in vitro assay used to identify LIMK2 inhibitors was developed. The analytical readout was the incorporation of ^33P from ATP substrate into immobilized myelin basic protein coated flash plates (Perkin Elmer Biosciences), which were counted on a scintillation counter equipped with a plate reader (TopCount, Packard Bioscience, Meriden, Conn.). Using 384 well flat MBP flashplates, total assay volume was 50 μl. The HTS program utilized a Biomek FX for dilution.
# For each assay, the ingredients and conditions were as follows: 200 ng of enzyme was incubated in assay buffer (1× assay buffer contains 30 mM HEPES (pH 8.0), 5 mM DTT, and 10 mM MgCl2), 10 μM ATP, 0.2 μCi [gamma-^33P]-ATP and 10 μM of potential inhibitory compound. The reaction was incubated at room temperature for 60 minutes, washed 3 times with 75 μl of stop/wash buffer (1× stop/was buffer contains 50 mM EDTA and 20 mM Tris (pH 7.4)), and then the plates were read on the scintillation counter. Different concentrations of staurosporine (400 nM, 200 nM, 100 nM and 50 nM; purchased from BIOMOL (Plymouth Meeting, Pa.)) were used as controls on each plate.
# T1 sequence (P53671 whole entry): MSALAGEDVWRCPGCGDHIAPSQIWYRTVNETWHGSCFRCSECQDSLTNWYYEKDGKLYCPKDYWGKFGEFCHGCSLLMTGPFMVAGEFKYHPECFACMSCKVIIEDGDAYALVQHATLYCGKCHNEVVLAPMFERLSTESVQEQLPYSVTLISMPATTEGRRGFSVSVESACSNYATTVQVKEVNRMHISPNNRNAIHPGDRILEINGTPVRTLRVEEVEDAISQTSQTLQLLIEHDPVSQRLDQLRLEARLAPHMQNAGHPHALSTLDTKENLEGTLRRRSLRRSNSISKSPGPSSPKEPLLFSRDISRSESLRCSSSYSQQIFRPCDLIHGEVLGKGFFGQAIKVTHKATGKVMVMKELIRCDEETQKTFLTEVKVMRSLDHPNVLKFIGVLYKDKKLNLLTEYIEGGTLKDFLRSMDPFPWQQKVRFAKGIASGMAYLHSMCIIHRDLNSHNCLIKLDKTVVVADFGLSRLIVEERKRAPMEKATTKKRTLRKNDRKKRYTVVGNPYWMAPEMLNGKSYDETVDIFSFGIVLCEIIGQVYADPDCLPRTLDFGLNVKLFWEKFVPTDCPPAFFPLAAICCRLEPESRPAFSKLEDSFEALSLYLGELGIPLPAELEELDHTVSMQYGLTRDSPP
row,Structure (SMILES),IC50 [nM]
1,"Cc1c[nH]c2ncnc(N3CCC(CNC(=O)[C@@H](N)CCCN)(C(=O)Nc4cccc(OC(=O)N(C)C)c4)CC3)c12 [(S)-3-(4-((2,5-diaminopentanamido)methyl)-1-(5-methyl-7H-pyrrolo[2,3-d]pyrimidin-4-yl)piperidine-4-carboxamido)phenyl dimethylcarbamate]",< 250
2,"Cc1c[nH]c2ncnc(N3CCC(CNC(=O)[C@@H](N)Cc4c[nH]cn4)(C(=O)Nc4cccc(OC(=O)N(C)C)c4)CC3)c12 [(S)-3-(4-((2-amino-3-(1H-imidazol-4-yl)propanamido)methyl)-1-(5-methyl-7H-pyrrolo[2,3-d]pyrimidin-4-yl)piperidine-4-carboxamido)phenyl dimethylcarbamate]",< 250
3,"Cc1c[nH]c2ncnc(N3CCC(CNC(=O)[C@@H](N)CO)(C(=O)Nc4cccc(OC(=O)N(C)C)c4)CC3)c12 [(S)-3-(4-((2-amino-3-hydroxypropanamido)methyl)-1-(5-methyl-7H-pyrrolo[2,3-d]pyrimidin-4-yl)piperidine-4-carboxamido)phenyl dimethylcarbamate]",< 250
4,"Cc1c[nH]c2ncnc(N3CCC(C)(C(=O)Nc4cccc(Oc5ccc(F)cc5)c4)CC3)c12 [N-(3-(4-fluorophenoxy)phenyl)-4-methyl-1-(5-methyl-7H-pyrrolo[2,3-d]pyrimidin-4-yl)piperidine-4-carboxamide]",< 250
5,"Cc1c[nH]c2ncnc(N3CCC(C)(C(=O)Nc4ccc(F)c(Br)c4)CC3)c12 [N-(3-bromo-4-fluorophenyl)-4-methyl-1-(5-methyl-7H-pyrrolo[2,3-d]pyrimidin-4-yl)piperidine-4-carboxamide]",< 250
6,"CC1(C(=O)Nc2cccc(Br)c2)CCN(c2ncnc3[nH]cc(Cl)c23)CC1 [N-(3-bromophenyl)-1-(5-chloro-7H-pyrrolo[2,3-d]pyrimidin-4-yl)-4-methylpiperidine-4-carboxamide]",< 250
7,"COc1ccc(NC(=O)C2(C)CCN(c3ncnc4[nH]cc(C)c34)CC2)cc1 [N-(4-methoxyphenyl)-4-methyl-1-(5-methyl-7H-pyrrolo[2,3-d]pyrimidin-4-yl)piperidine-4-carboxamide]",< 250
8,"COC(=O)c1nnn(CC2(C(=O)Nc3cccc(OC(=O)N(C)C)c3)CCN(c3ncnc4[nH]cc(C)c34)CC2)c1C(=O)OC [dimethyl 1-((4-(3-(dimethylcarbamoyloxy)phenylcarbamoyl)-1-(5-methyl-7H-pyrrolo[2,3-d]pyrimidin-4-yl)piperidin-4-yl)methyl)-1H-1,2,3-triazole-4,5-dicarboxylate]",< 250

# Further lines, results first:
row,IC50 [nM],Structure (SMILES)
1,< 250,"Cc1c[nH]c2ncnc(N3CCC(C)(C(=O)Nc4ccccc4)CC3)c12 [4-methyl-1-(5-methyl-7H-pyrrolo[2,3-d]pyrimidin-4-yl)-N-phenylpiperidine-4-carboxamide]"
2,< 250,"Cc1c[nH]c2ncnc(N3CCC(C)(C(=O)Nc4cccc(CC(=O)N(C)C)c4)CC3)c12 [N-(3-(2-(dimethylamino)-2-oxoethyl)phenyl)-4-methyl-1-(5-methyl-7H-pyrrolo[2,3-d]pyrimidin-4-yl)piperidine-4-carboxamide]"
3,< 250,"Cc1c[nH]c2ncnc(N3CCC(C)(C(=O)Nc4cccc(S(=O)(=O)NC(C)C)c4)CC3)c12 [N-(3-(N-isopropylsulfamoyl)phenyl)-4-methyl-1-(5-methyl-7H-pyrrolo[2,3-d]pyrimidin-4-yl)piperidine-4-carboxamide]"
4,< 250,"Cc1c[nH]c2ncnc(N3CCC(C)(C(=O)Nc4cccc(Br)c4)CC3)c12 [N-(3-bromophenyl)-4-methyl-1-(5-methyl-7H-pyrrolo[2,3-d]pyrimidin-4-yl)piperidine-4-carboxamide]"
5,< 250,"Cc1c[nH]c2ncnc(N3CCC(C)(C(=O)Nc4cccc(NC(=O)C(C)C)c4)CC3)c12 [N-(3-isobutyramidophenyl)-4-methyl-1-(5-methyl-7H-pyrrolo[2,3-d]pyrimidin-4-yl)piperidine-4-carboxamide]"
